The values below come from the Bradley open melting point set (2014).

Several values for one entry are separate records, joined by “and”; a condition that tells them apart may be missing. Equal values may be shown once.

The molecule `CC(NC(=O)COCCN1C(=O)c2ccccc2C1=O)C(=O)NC(CCC(=O)O)C(=O)O` (centres undefined) gave a melting point of 194 °C.

As to `C/C(=N\Nc1cccc2cccnc12)c1cccs1` [8-{(2E)-2-[1-(2-Thienyl)ethylidene]hydrazino}quinoline], the melting point was 160 °C.

For `CCCCOC(=O)c1ccc(O)cc1` [butylparaben], the melting point was 68.5 °C (2×) and 69 °C.

For `Cc1cccc(-c2nc(-c3ccccc3)cs2)c1` [4-phenyl-2-(m-tolyl)thiazole], the melting point amounted to 48 °C.

As for `CCCCCCC=O` [heptanal], the melting point was -43 °C.

In the case of `BrCCCBr` [1,3-dibromopropane], the melting point is -34 °C.

As to `O=C(O)c1cc(-c2ccc(F)cc2F)ccc1O` [Diflunisal], the melting point was 216 °C.

Regarding `COc1ccc(-c2csc(C(C#N)=Cc3cccs3)n2)cc1`, the melting point was determined as 141 °C.

For `CCCCCCCCCc1ccc(B(O)O)cc1` [4-n-nonylbenzeneboronic acid], the melting point was 84 °C.

In the case of `Clc1ccc(-c2ccccc2)cc1` [4-chlorobiphenyl], the melting point worked out at 78 °C.

Take `[2H]C(Cl)(Cl)Cl` [Trichloro(~2~H)methane]: the melting point is -64 °C.

For `C1=CC=CC=CC=C1` [1,3,5,7-cyclooctatetraene], the melting point is -27 °C.

Regarding `O=C(O)C1=CCCCC1` [1-cyclohexene-1-carboxylic acid], the melting point amounted to 32 °C.

Consider `CCC(C)(CO)CO` [2-ethyl-2-methyl-1,3-propanediol], for which the melting point was found to be 44 °C.

For `O=C(O)c1cc(=O)[nH]c(=O)[nH]1` [Orotic Acid], the melting point turned out to be 346 °C.

Take `COC(=O)C1=Nc2ccccc2C1(C)C` [methyl 3,3-dimethyl-3H-indole-2-carboxylate]: the melting point turned out to be 75 °C.

On to `C=CCCl` [3-Chloroprop-1-ene], for which the melting point is -134 °C.

The molecule `CC(=O)Nc1ccccc1C#Cc1ccccc1` [N-[2-(phenylethynyl)phenyl]acetamide] came in with a melting point of 119 °C.

With `Cc1ccc(C)c(N)c1` [2,5-Xylidine], the melting point stood at 15.5 °C.

`O=C(O)Cc1ccccc1O` [2-Hydroxyphenylacetic acid] yielded a melting point of 149 °C.

`Cc1[nH]n(-c2ccccc2)c(=O)c1C(=O)c1ccccc1` [4-benzoyl-3-methyl-1-phenyl-5-pyrazolinone] gave a melting point of 91 °C.

In turn, `COc1ccc2c(c1)c(CC(=O)OCC(=O)O)c(C)n2C(=O)c1ccc(Cl)cc1` [acemetacin] had a melting point of 150 °C.

Consider `C=Cc1ccc(C(C)=O)cc1` [p-acetylstyrene], for which the melting point was 37 °C.

As for `CC(=O)C1=CC[C@H]2[C@@H]3CC(=O)C4=C[C@@H](O)CC[C@]4(C)[C@H]3CC[C@]12C` [3β-Hydroxypregna-4,16-diene-6,20-dione], the melting point is 169 °C.

`COc1ccc(O)cc1` [4-Methoxyphenol] gave a melting point of 56 °C.

Regarding `Cn1c(Cl)cc(=O)n(C)c1=O` [6-chloro-1,3-dimethyluracil], the melting point came to 110 °C.

Take `CC(C=CC=C(C)/C=C/C1=C(C)CCCC1(C)C)=CC(=O)O` [Tretinoin]: the melting point was found to be 181 °C.

On to `CC/C=C/CC` [trans-3-hexene], for which the melting point was -113 °C.

The molecule `NC(=O)c1sccc1N` [3-aminothiophene-2-carboxamide] registered a melting point of 121 °C.

Take `C[C@@H](O)[C@H](O)[C@H](O)[C@@H](O)C=O` [D-fucose]: the melting point turned out to be 145 °C.

`[C-]#[N+]CS(=O)(=O)c1ccc(C)cc1` [p-toluenesulfonylmethyl isocyanide] registered a melting point of 112 °C.

In the case of `NCCc1ccc(O)cc1` [tyramine], the melting point is 164 °C.

`CCOc1ccc(C#N)cc1` [4-ethoxybenzonitrile] had a melting point of 62 °C.

For the molecule `CCSC(SCC)C(O)C(O)C(O)C(O)CO` (centres undefined) [6,6-di(ethylthio)hexane-1,2,3,4,5-pentaol], the melting point was determined as 128 °C.

For `CC(C)(C)c1ccc(-c2ccc(Br)cc2)cc1` [4-bromo-4'-tert-butylbiphenyl], the melting point amounted to 142 °C.

Consider `CCCCCCCC(C)CC` (centres undefined) [3-methyldecane], for which the melting point is -76 °C.

Regarding `CCOC(=O)/C=C\C(=O)OCC` [Diethyl (2Z)-but-2-enedioate], the melting point is -10 °C.

Take `O=C(O)[C@@H]1[C@H](C(=O)O)[C@H]2C=C[C@@H]1C2` [(1R,2R,3S,4S)-Bicyclo[2.2.1]hept-5-ene-2,3-dicarboxylic acid]: the melting point was 150 °C.

For `IC(I)I` [Iodoform], the melting point worked out at 122 °C.

On to `CCCC` [butane], for which the melting point was -138 °C and -137 °C.

The molecule `CCCCCCCCCCCCCCCCCC` [N-octadecane] registered a melting point of 28 °C.

For the molecule `Oc1c(F)c(F)cc(F)c1F` [2,3,5,6-tetrafluorophenol], the melting point is 29 °C.

`O=C1CCC(=O)O1` [succinic anhydride] displayed a melting point of 120 °C.

On to `Cc1cc(C)cc(C)c1` [Mesitylene], for which the melting point is -45 °C.

The molecule `CCCCCCCCCCCCCC(=O)O` [tetradecanoic acid] registered a melting point of 55 °C.

The molecule `C=C[C@H]1C[N@@]2CC[C@H]1C[C@@H]2[C@@H](O)c1ccnc2ccc(OC)cc12` [quinidine] yielded a melting point of 170 °C.

`Clc1nc2ccccc2s1` [2-chlorobenzothiazole] returned a melting point of 32 °C.

Turning to `CS` [Methanethiol], the melting point was -121 °C.

Consider `CC(C)C(C(=O)O)C(=O)O` [isopropylmalonic acid], for which the melting point was 89 °C.

`CCOc1ccccc1B(O)O` [2-ethoxybenzeneboronic acid]: the melting point was 100 °C.

As to `O=S(=O)(O)Cl` [Sulfurochloridic acid], the melting point is -80 °C.

On to `C/C(C)=CCC` [2-Methylpent-2-ene], for which the melting point was -135 °C.

Molecule `O=S(=O)(Nc1ccccc1Cl)c1ccccc1` [2-chloro-1-phenylsulfonamidobenzene] had a melting point of 125 °C.

`CC(=O)CCc1ccc(CCC(C)=O)cc1` [4,4'-benzene-1,4-diyldibutan-2-one]: the melting point was determined as 56 °C.

For `OC[C@@H](O)[C@@H](O)[C@H](O)[C@H](O)CO` [D-Mannitol], the melting point came out at 167 °C.

Turning to `CCCCOC(=O)CCC` [N-butyl butyrate], the melting point was -92 °C.

As to `N#Cc1cc(I)c(O)c(I)c1` [3,5-diiodo-4-hydroxybenzonitrile], the melting point amounted to 204 °C.

For the molecule `CCCCC(=O)O` [pentanoic_acid], the melting point is -34 °C.

In turn, `O=C(S)c1ccccc1` [thiobenzoic acid] had a melting point of 17 °C.

The molecule `O=Cc1ccc([N+](=O)[O-])o1` [5-nitro-2-furaldehyde] gave a melting point of 36 °C.

The molecule `CC(CP(=O)(O)O)P(=O)(O)O` (centres undefined) [propylenediphosphonic acid] had a melting point of 178 °C.

Turning to `CCOC(=O)Cc1cc(/C(=N/Nc2ccccc2)C(=O)OCC)c([N+](=O)[O-])cc1[N+](=O)[O-]`, the melting point is 155 °C.

`CCCCCCCCCCC` [Undecane]: the melting point was -26 °C.

With `Nc1cc(Cl)cc(Cl)c1` [3,5-dichloroaniline], the melting point turned out to be 53 °C.

The molecule `CCCCCCCCCCCCCC` [N-tetradecane] returned a melting point of 6 °C.

Consider `CCNc1nc(Cl)nc(NC(C)C)n1` [atrazine], for which the melting point is 175 °C and 177 °C.

`Cc1ncc2n1-c1ccc(Cl)cc1C(c1ccccc1F)=NC2` [Midazolam] came in with a melting point of 159 °C.

Take `Nc1ccc(F)c(Cl)c1` [3-chloro-4-fluoroaniline]: the melting point turned out to be 46 °C.

Turning to `O=C(O)C(c1ccccc1)c1ccccc1` [diphenylacetic acid], the melting point was 147 °C.

Consider `O=C(O)CCc1ccc(C(=O)O)cc1` [3-(4-carboxyphenyl)propionic acid], for which the melting point worked out at 290 °C.

`COC(=O)c1cccc(B(O)O)c1` [3-(methoxycarbonyl)benzeneboronic acid]: the melting point was determined as 136 °C.

As for `ClC1/C=C\C2C3(Cl)C(\Cl)=C(\Cl)C(Cl)(C12)C3(Cl)Cl` (centres undefined) [heptachlor], the melting point is 95 °C and 95.5 °C.

Take `O=C(/C=C/c1ccc([N+](=O)[O-])cc1)c1ccccc1` [4-nitrochalcone]: the melting point is 164 °C.

In turn, `O=C(O)COc1ccc(CO)cc1` [4-(hydroxymethyl)phenoxyacetic acid] gave a melting point of 112 °C.

Molecule `CC(C)(C)NC(=O)C(c1ccccc1)N(Cc1ccco1)C(=O)CNC(=O)OC(C)(C)C` (centres undefined) [Ugi product 206B(UC)] had a melting point of 203 °C.

For the molecule `C[C@]12CCC(=O)C=C1CC[C@@H]1[C@@H]2[C@@H](O)C[C@@]2(C)[C@H]1CC[C@]2(O)C(=O)CO` [(11beta)-11,17,21-Trihydroxypregn-4-ene-3,20-dione], the melting point stood at 220 °C.

For the molecule `NC(=O)/C=C\C(=O)O` [(2Z)-4-Amino-4-oxobut-2-enoic acid], the melting point was found to be 160 °C.

`O=C[C@@H](O)[C@@H](O)[C@@H](O)[C@H](O)CO` [alpha-D-talose] registered a melting point of 134 °C.

In the case of `O=[N+]([O-])c1cc(C=Nc2ccccc2)ccc1C=Nc1ccccc1` [N,N'-[(2-nitrobenzene-1,4-diyl)di(E)methylylidene]dianiline], the melting point turned out to be 134 °C.

`OC[C@@H](O)[C@@H](O)[C@H](O)[C@@H](O)CO` [D-sorbitol] yielded a melting point of 99 °C.

The molecule `Oc1cccc(Cl)c1Cl` [2,3-dichlorophenol] gave a melting point of 59 °C.

For the molecule `COc1cc(OC)cc(C(C)=O)c1` [3,5-dimethoxyacetophenone], the melting point was determined as 34 °C.

On to `CCC(C)(C)c1ccc(O)cc1` [4-tert-pentylphenol], for which the melting point was 89 °C.

Consider `C[C@H](O)[C@@H](C)O` [meso-2,3-butanediol], for which the melting point was 34.5 °C and 33 °C.

`O=C(O)C(O)C(O)C(=O)O` (centres undefined) [tartaric acid] showed a melting point of 147 °C.

For `O=C(O)C(F)(F)F` [Trifluoroacetic acid], the melting point was -15 °C.

For `CN1Cc2c(N)cccc2C(c2ccccc2)C1` (centres undefined) [Nomifensine], the melting point turned out to be 180 °C.

As for `O=C(O)c1cnn(-c2ccc([N+](=O)[O-])cc2)c1C(F)(F)F`, the melting point was determined as 201 °C.

On to `CCCCCOC(C)=O` [N-pentyl acetate], for which the melting point was -100 °C.

In general, melting point refers to the temperature of the solid-liquid transition.
